Test results: patent US11802120B2, “Fused cyclic urea derivatives as CRHR2 antagonist” (RaQualia Pharma Inc., priority 2018, dated 2023)

Each molecule was assayed against T1, human CRHR2-alpha (Homo sapiens, UniProt Q13324) (assay: cAMP functional assay for human CRHR2 (LANCE Ultra cAMP, TR-FRET)). Conditions: CHO-K1 cells expressing human CRHR2-alpha, agonist human urocortin2 at EC80, cAMP; read-out: IC50 against CRHR2.
T1 sequence (Q13324 1-411): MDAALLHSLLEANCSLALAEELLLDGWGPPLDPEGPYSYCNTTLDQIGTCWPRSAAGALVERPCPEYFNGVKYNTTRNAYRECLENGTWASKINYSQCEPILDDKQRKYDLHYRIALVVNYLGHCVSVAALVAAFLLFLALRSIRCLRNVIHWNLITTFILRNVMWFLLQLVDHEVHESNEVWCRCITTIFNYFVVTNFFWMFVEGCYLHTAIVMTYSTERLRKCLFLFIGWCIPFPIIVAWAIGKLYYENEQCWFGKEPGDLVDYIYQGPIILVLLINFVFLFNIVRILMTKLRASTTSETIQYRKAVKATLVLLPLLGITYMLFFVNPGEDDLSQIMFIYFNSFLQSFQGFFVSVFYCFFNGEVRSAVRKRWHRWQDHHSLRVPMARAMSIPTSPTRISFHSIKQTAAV
Format: cell-based
Outline: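 CHO-K1 stable lines; 4,000 cells/well; compound 30 min, 25° C; EC80 agonist (human urocortin2 → CRHR2, CRF → CRHR1) 30 min, 25° C; buffer HBSS/0.1% BSA/0.5 mM IBMX/5 mM Hepes pH 7.4; Eu-cAMP tracer + ULight antibody 60 min; TR-FRET read; IC50 from % inhibition curves.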

Structure (SMILES) | IC50
Cc1ncc(Cl)cc1C(=O)N[C@H]1CC[C@H](Cn2c(=O)n(-c3ccc4c(Cl)nn(C)c4c3)c3ccccc32)CC1 [Example 208, 5-chloro-N-((1r,4r)-4-((3-(3-chloro-1-methyl-1H-indazol-6-yl)-2-oxo-2,3-dihydro-1H-benzo[d]imidazol-1-yl)methyl)cyclohexyl)-2-methylnico-tinamide] | < 0.3 µM
Cc1ncc(Cl)cc1C(=O)N[C@H]1CC[C@H](Cn2c(=O)n(-c3ccc4[nH]nc(C)c4c3)c3ncccc32)CC1 [Example 212, 5-chloro-2-methyl-N-((1r,4r)-4-((3-(3-methyl-1H-indazol-5-yl)-2-oxo-2,3-dihydro-1H-imidazo[4,5-b]pyridin-1-yl)methyl)cyclohexyl)nicotinamide] | < 0.3 µM
CNC(=O)c1ccc(-n2c(=O)n(C[C@H]3CC[C@H](NC(=O)c4cc(Cl)cnc4C(F)F)CC3)c3ccccc32)c(C)n1 [Example 556, 5-(3-(((1r,4r)-4-(5-chloro-2-(difluoromethyl)nicotina-mido)cyclohexyl)methyl)-2-oxo-2,3-dihydro-1H-benzo[d]imidazol-1-yl)-N,6-dimethylpicolinamide] | < 0.3 µM
COc1ccc(Cl)c(-n2c(=O)n(C[C@H]3CC[C@H](NC(=O)c4cc(Cl)cnc4C(F)F)CC3)c3cccnc32)c1 [Example 453, 5-chloro-N-((1r,4r)-4-((3-(2-chloro-5-methoxyphenyl)-2-oxo-2,3-dihydro-1H-imidazo [4,5-b]pyridin-1-yl)methyl)cyclohexyl)-2-(difluoromethyl) nicotinamide] | < 0.3 µM
Cc1ncc(Cl)cc1C(=O)N[C@H]1CC[C@H](Cn2c(=O)n(-c3ccnc4ccccc34)c3ccccc32)CC1 [Example 370, 5-chloro-2-methyl-N-((1r,4r)-4-((2-oxo-3-(quinolin-4-yl)-2,3-dihydro-1H-benzo[d]imi-dazol-1-yl)methyl)cyclohexyl) nicotinamide] | < 0.3 µM
O=C(N[C@H]1CC[C@H](Cn2c(=O)n(-c3ccc(NC4COC4)nc3)c3ccccc32)CC1)c1cc(Cl)cnc1C(F)F [Example 481, 5-chloro-2-(difluoromethyl)-N-((1r,4r)-4-((3-(6-(oxetan-3-ylamino)pyridin-3-yl)-2-oxo-2,3-dihydro-1H-benzo [d]imidazol-1-yl)methyl)cyclohexyl)nicotinamide] | < 0.3 µM
Cc1ncc(Cl)cc1C(=O)N[C@H]1CC[C@H](Cn2c(=O)n(-c3ccc(-c4ncc[nH]4)nc3)c3ccccc32)CC1 [Example 695, N-((1r,4r)-4-((3-(6-(1H-imidazol-2-yl)pyridin-3-yl)-2-oxo-2,3-dihydro-1H-benzo[d]imidazol-1-yl)methyl)cyclohexyl)-5-chloro-2-methylnicotinamide] | < 0.3 µM
Cn1cc(-c2cncc(-n3c(=O)n(C[C@H]4CC[C@H](NC(=O)c5cc(Cl)cnc5C(F)F)CC4)c4ccccc43)c2)cn1 [Example 682, 5-chloro-2-(difluoromethyl)-N-((1r,4r)-4-((3-(5-(1-methyl-1H-pyrazol-4-yl)pyridin-3-yl)-2-oxo-2,3-dihydro-1H-benzo[d]imidazol-1-yl)methyl)cyclohexyl)nicotinamide] | < 0.3 µM
Cc1ncc(Cl)cc1C(=O)N[C@H]1CC[C@H](Cn2c(=O)n(-c3cccnc3C(F)(F)F)c3ccccc32)CC1 [Example 318, 5-chloro-2-methyl-N-((1r,4r)-4-((2-oxo-3-(2-(trifluoro-methyl)pyridin-3-yl)-2,3-dihydro-1H-benzo[d]imidazol-1-yl)methyl)cyclohexyl) nicotinamide] | < 0.3 µM
Cc1ncc(Cl)cc1C(=O)N[C@H]1CC[C@H](Cn2c(=O)n(-c3ccncc3Cl)c3ccccc32)CC1 [Example 262, 5-chloro-N-((1r,4r)-4-((3-(3-chloropyridin-4-yl)-2-oxo-2,3-dihydro-1H-benzo[d]imidazol-1-yl)methyl)cyclo-hexyl)-2-methylnicotinamide] | < 0.3 µM
O=C(N[C@H]1CC[C@H](Cn2c(=O)n(-c3ccc(NC4CC4)nc3)c3ccccc32)CC1)c1cc(Cl)cnc1C(F)F [Example 543, 5-chloro-N-((1r,4r)-4-((3-(6-(cyclopropylamino)pyridin-3-yl)-2-oxo-2,3-dihydro-1H-benzo[d]imidazol-1-yl)methyl)cyclohexyl)-2-(difluoro-methyl)nicotinamide] | < 0.3 µM

Next, values leading:

IC50 | Structure (SMILES)
< 0.3 µM | Cc1ncc(Cl)cc1C(=O)N[C@H]1CC[C@H](Cn2c(=O)n(-c3ccnc(-c4cnn(C)c4)c3)c3ccccc32)CC1 [Example 680, 5-chloro-2-methyl-N-((1r,4r)-4-((3-(2-(1-methyl-1H-pyrazol-4-yl)pyridin-4-yl)-2-oxo-2,3-dihydro-1H-benzo[d]imidazol-1-yl)methyl)cyclohexyl) nicotinamide]
< 0.3 µM | O=C(N[C@H]1CC[C@H](Cn2c(=O)n(-c3ccc4cnccc4c3)c3ccccc32)CC1)c1cc(Cl)cnc1C(F)(F)F [Example 398, 5-chloro-N-((1r,4r)-4-((3-(isoquinolin-6-yl)-2-oxo-2,3-dihydro-1H-benzo[d]imidazol-1-yl)methyl)cyclohexyl)-2-(trifluoromethyl)nicotinamide]
< 0.3 µM | CCn1nc2ccccc2c1C(=O)N[C@H]1CC[C@H](Cn2c(=O)n(-c3ccc(C)nc3)c3ccccc32)CC1 [Example 38, 2-ethyl-N-((1r,4r)-4-((3-(6-methylpyridin-3-yl)-2-oxo-2,3-dihydro-1H-benzo[d]imidazol-1-yl)methyl)cyclohexyl)-2H-indazole-3-carboxamide]
< 0.3 µM | COCCNc1cc(C#N)c(-n2c(=O)n(C[C@H]3CC[C@H](NC(=O)c4cc(Cl)cnc4C)CC3)c3ccccc32)cn1 [Example 310, 5-chloro-N-((1r,4r)-4-((3-(4-cyano-6-((2-methoxyethyl)amino)pyridin-3-yl)-2-oxo-2,3-dihydro-1H-benzo[d]imidazol-1-yl)methyl)cyclohexyl)-2-methylnicotinamide]
< 0.3 µM | Cc1ncc(Cl)cc1C(=O)N[C@H]1CC[C@H](Cn2c(=O)n(-c3cnc4[nH]ccc4c3)c3ccccc32)CC1 [Example 408, 5-chloro-2-methyl-N-((1r,4r)-4-((2-oxo-3-(1H-pyrrolo[2,3-b]pyridin-5-yl)-2,3-dihydro-1H-benzo[d]imidazol-1-yl)methyl)cyclohexyl)nicotinamide]
< 0.3 µM | O=C(N[C@H]1CC[C@H](Cn2c(=O)n(-c3ccc(OCCF)nc3)c3ccccc32)CC1)c1cc(Cl)cnc1C(F)F [Example 432, 5-chloro-2-(difluoromethyl)-N-((1r,4r)-4-((3-(6-(2-fluoroethoxy)pyridin-3-yl)-2-oxo-2,3-dihydro-1H-benzo[d]imidazol-1-yl)methyl)cyclohexyl)nicotinamide]
< 0.3 µM | COCc1ncc(Cl)cc1C(=O)N[C@H]1CC[C@H](Cn2c(=O)n(-c3ccc(C)nc3)c3ccccc32)CC1 [Example 329, 5-chloro-2-(methoxymethyl)-N-((1r,4r)-4-((3-(6-methyl-pyridin-3-yl)-2-oxo-2,3-dihydro-1H-benzo[d]imidazol-1-yl)methyl)cyclohexyl) nicotinamide]
< 0.3 µM | Cc1ncc(Cl)cc1C(=O)N[C@H]1CC[C@H](Cn2c(=O)n(-c3ccc4[nH]nc(C)c4c3)c3ccccc32)CC1 [Example 170, 5-chloro-2-methyl-N-((1r,4r)-4-((3-(3-methyl-1H-indazol-5-yl)-2-oxo-2,3-dihydro-1H-benzo[d]imidazol-1-yl)methyl)cyclohexyl)nicotinamide]
< 0.3 µM | CCn1cc2cc(-n3c(=O)n(C[C@H]4CC[C@H](NC(=O)c5cc(Cl)cnc5C)CC4)c4ccccc43)cnc2n1 [Example 254, 5-chloro-N-((1r,4r)-4-((3-(2-ethyl-2H-pyrazolo[3,4-b]pyridin-5-yl)-2-oxo-2,3-dihydro-1H-benzo[d]imidazol-1-yl)methyl)cyclohexyl)-2-methylnicotinamide]
< 0.3 µM | CNc1ccc(-n2c(=O)n(C[C@H]3CC[C@H](NC(=O)c4cc(Cl)cnc4C(F)(F)F)CC3)c3ccc(F)cc32)cn1 [Example 705, 5-chloro-N-((1r,4r)-4-((5-fluoro-3-(6-(methylamino)pyridin-3-yl)-2-oxo-2,3-dihydro-1H-benzo[d]imidazol-1-yl)methyl)cyclo-hexyl)-2-(trifluoromethyl) nicotinamide]
< 0.3 µM | CNC(=O)c1ccc(-n2c(=O)n(C[C@H]3CC[C@H](NC(=O)c4cc(Cl)cnc4C(F)(F)F)CC3)c3ccccc32)cn1 [Example 240, 5-(3-(((1r,4r)-4-(5-chloro-2-(trifluoromethyl)nicotina-mido)cyclohexyl)methyl)-2-oxo-2,3-dihydro-1H-benzo [d]imidazol-1-yl)-N-methylpicolinamide]
< 0.3 µM | Cc1cn(CCO)c2ncc(-n3c(=O)n(C[C@H]4CC[C@H](NC(=O)c5cc(Cl)cnc5C(F)F)CC4)c4ccccc43)cc12 [Example 731, 5-chloro-2-(difluoromethyl)-N-((1r,4r)-4-((3-(1-(2-hydroxyethyl)-3-methyl-1H-pyrrolo[2,3-b]pyridin-5-yl)-2-oxo-2,3-dihydro-1H-benzo[d]imidazol-1-yl)methyl)cyclohexyl)nicotinamide]
< 0.3 µM | CNC(=O)c1cc(C)c(-n2c(=O)n(C[C@H]3CC[C@H](NC(=O)c4cc(Cl)cnc4C(F)(F)F)CC3)c3ccccc32)cn1 [Example 313, 5-(3-(((1r,4r)-4-(5-chloro-2-(trifluoromethyl)nico-tinamido)cyclohexyl)methyl)-2-oxo-2,3-dihydro-1H-benzo[d]imidazol-1-yl)-N,4-dimethylpicolinamide]
